Legend:
FKBP12 = molecular target: T1, FKBP12 (Homo sapiens, UniProt P62942); assay: Suppression of rapamycin inhibition of S6 phosphorylation by competing for FKBP12; assay type: cell-based; settings: RPMI 8226, 24 hours; FK506 10 μM, compound 3 and B1 0.2 μM, with rapamycin
T1 construct: endogenous in cells; host or cells: RPMI 8226 (ATCC)
Experimental: Human multiple myeloma RPMI 8226 cells were purchased from American Type Culture Collection (ATCC; Manassas, Va.) and cultured according to ATCC specifications. […] The content of live cells was determined by excluding the Trypan Blue-stained cells. The cells were counted with TC20 Automated Cell Counter (Bio-Rad Laboratories, Hercules, Calif.) and EC50 was calculated with Origin Pro 2017 (OriginLab Corporation, Northampton, Mass.). When indicated, the cells were harvested, washed twice in PBS, resuspended in dilution buffer and stored in −80° C. To prepare crude lysates the thawed preparations were vortexed with glass beads and centrifuged for 5 min 5,000×g (4° C.). The supernate was centrifuged for 20 min 14,000×g. The resulting supernate was used as “crude lysate.” SDS-PAGE was carried in 12% acrylamide, Tris-glycine gels from Invitrogen. Chameleon Duo (Li-Cor) and Rainbow RPN800E (GE Healthcare) molecular weight standards were separated on each gel alongside lysates. The proteins were transferred to nitrocellulose membrane in a semi-dry system. The membranes were probed with specific primary antibodies from Life Technologies (S6, PS6) and Li-Cor (COX IV), and then with secondary antibodies from Li-Cor. In each experiment visualization of S6, PS6 and COX IV was performed on the same membrane with Odyssey Infrared Imaging System (Li-Cor). […]

[1] = Pilot toxicity study in mice
Experimental: Six injections were performed on Mondays, Wednesdays, and Fridays for two weeks, and the weight and overall condition of the mice were monitored.

[2] = molecular target: T2, native human 20 S core proteasome (Homo sapiens, UniProt P25787+P25789); assay: AFM imaging of gate conformers of 20 S proteasome
T2 construct: purified from erythrocytes; purchased Enzo Life Sciences, Inc. (Farmingdale, N.Y.); host or cells: human erythrocytes
Experimental: The single molecule imaging of the 20 S proteasome was carried out as previously described, with a scanner E of the Multimode Nanoscope IIIa (Bruker Inc) (Gaczynska and Osmulski (2009) Atomic Force Microscopy as a Tool to Study the Proteasome Assemblies; Osmulski et al. (2009) Structure 17(8): 1137-1147. Available from http://www.scopus.com/inward/record.url?eid=2-s2.0-68149164657&partnerID=40&md5=dc5e413998472b20d822db9458de1955). In short, the proteasomes were deposited and electrostatically attached to a muscovite mica substrate, covered with imaging buffer (5 mM Tris/HCl, pH 7) and scanned in tapping mode in fluid using cantilevers with the spring constant of 0.35 N/m from the SNL (Sharp Nitride Lever) probes (Bruker Inc.) tuned to 9-10 kHz. Gentle scanning conditions with the amplitude setpoint in the range of 1.5-2.0V, drive voltage of 300-500 mV and 3.05 Hz scanning rate were used. Scans of 1 μm^2 fields (512×512 pixels) contained height-mode images of several dozens of top-view (“standing”) 20 S proteasome molecules. The gate status was deduced from a profile of raw height values of pixels measured by a probe scanning across the single proteasome particles. The proteasome a face that included the gate was completely rendered by a six-pixel (11-12 nm) scan-line. If the α face scan-line presented a central dip (a local minimum), the particle was classified as containing the open gate. If a plot of height values presented a concave function without a local minimum, the particle was classified as an intermediate conformer. If the function was convex, the particle was classified as containing the closed gate. The “events” of gate opening/closing were analyzed for scans of distinct particles as well as multiple scans of the same particles.
Next, AFM imaging of the native human 20 S core proteasome treated with 10 μM compound 3 was performed to get insight into the putative effects of the compound on the conformation of the α face in the single molecule fashion. In the in-liquid tapping mode AFM method, the outer shape of the α face is monitored by the ultra-sharp probe interacting […] with the protein molecule mostly by van der Waals forces (Gaczynska and Osmulski (2008) Methods Cell Biol. 90: 39-60). […] Treatment with 10 μM of rapamycin shifted the conformational equilibrium of the 20 S core from about 75% to about 50% of closed-gate molecules (Osmulski and Gaczynska (2013) Molecular pharmacology 84: 104-113). An apparent similar shift was induced by compound 3, when the partition of closed conformers dropped from 73±1% (n=4 experiments, 90 events of gate opening/closing) to 45±11% (n=6 experiments, 218 events). Moreover, upon additional refined analysis of “not closed” conformers, it was possible to distinguish the presumably open-gate forms from intermediate forms.
The putative binding site of compound 3 in the α ring pocket, identified by molecular modeling (FIG. 2) and biochemical data (FIG. 4), led to the examination of whether the inhibitor-induced conformational changes in a face gate dynamics. For this purpose, imaging of native 20 S proteasomes was employed using a previously established method of atomic force microscopy (AFM). In this method, topography of the α face of buffer-submerged proteasomes that stand on their opposite a face is rendered in real time by the ultra-sharp probe. A tip of the probe interacts with the molecules mostly by van der Waals forces (Gaczynska and Osmulski (2011) Methods Mol. Biol. 736: 117-32). The distribution of conformation types of a face is routinely accessed with sequential scans of fields of multiply randomly distributed proteasomes. Alternatively, consecutive single scan lines representing the gate status of individual particles are collected. The particles are classified as closed-gate if their a face is smooth and regularly concave (FIG. 5). […]

[3] = 10 and 30 mg/kg intravenously, six injections in two weeks

T1 sequence (P62942 whole entry): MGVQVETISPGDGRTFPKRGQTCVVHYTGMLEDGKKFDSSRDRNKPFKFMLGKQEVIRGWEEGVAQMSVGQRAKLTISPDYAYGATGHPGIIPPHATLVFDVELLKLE

COc1cc(CCCOC(=O)[C@@H]2CCCCN2C(=O)OCc2ccccc2)cc(OC)c1OC [Compound 3, 1-benzyl 2-(3-(3,4,5-trimethoxyphenyl)propyl) (S)-piperidine-1,2-dicarboxylate]
suppression of rapamycin inhibition of S6 phosphorylation (FKBP12 binding) (FKBP12): did not mimic the actions of FK506 | animals' behavior [1, 3]: No differences in the animals' behavior were noted | body weight versus control mice [1, 3]: did not differ significantly | toxicity for mice ([1]; highest tested dose 30 mg/kg): non-toxic for mice up to a highest tested dose of 30 mg/kg | abundance of gate conformers ([2]; 100 nM): increased the abundance of closed-gate conformers and rendered the open-gate forms nearly undetectable | contribution of open-gate proteasomes ([2]; 1 μM): only about a half of that observed in the control particles | particles in closed-gate conformation ([2]; 10 μM): less than a half of the particles were in the closed-gate conformation | contribution of open-gate and intermediate forms ([2]; 10 μM, compared to control): increased about twice | partition of closed conformers ([2]; 10 μM, n=6 experiments, 218 events, control 73±1%): 45±11% | number of intermediate forms ([2]; 10 μM, versus control): increased significantly | partition of open forms ([2]; 10 μM, versus control): remained remarkably steady
